# According to patent publication US9862726B2, “Opioid receptor modulating oxabicyclo[2.2.2]octane morphinans” (PURDUE PHARMA L.P., priority 2013, dated 2018):
# Experiments:
# κ-opioid receptor [1] = target: T1, κ-opioid receptor (Homo sapiens (Human), UniProt P41145); test: κ-opioid receptor functional assay (U-2 OS cells); assay type: biochemical; settings: for Emax: U-2 OS cells, relative to U69,593
# Protocol: (§1) Functional [^35S]GTPγS binding assays were conducted as follows. κ opioid receptor membrane solution was prepared by sequentially adding final concentrations of 0.026 μg/μl κ membrane protein (in-house), 10 μg/mL saponin, 3 μM GDP and 0.20 nM [^35S]GTPγS to binding buffer (100 mM NaCl, 10 mM MgCl2, 20 mM HEPES, pH 7.4) on ice. The prepared membrane solution (190 μl/well) was transferred to 96-shallow well polypropylene plates containing 10 μl of 20× concentrated stock solutions of agonist prepared in DMSO. Plates were incubated for 30 min at a temperature of about 25° C. with shaking. Reactions were terminated by rapid filtration onto 96-well Unifilter GF/B filter plates (Perkin Elmer, Shelton, Conn.) using a 96-well tissue harvester (Packard) and followed by three filtration washes with 200 μl ice-cold binding buffer (10 mM NaH2PO4, 10 mM Na2HPO4, pH 7.4). Filter plates were subsequently dried at 50° C. for 2-3 hours. Fifty μl/well scintillation cocktail (Perkin Elmer, Shelton, Conn.) was added and plates were counted in a Packard Top-Count for 1 min/well.
# (§2) κ GTP EC50 is the concentration of a compound providing 50% of the maximal response for the compound at a κ receptor.
# (§3) κ GTP Emax (%) is the maximal effect elicited by a compound relative to the effect elicited by U69,593.
# The following TABLE 5 provides results on the activity response of certain Compounds of the Invention at the μ- and κ-opioid receptors determined as described above using U-2 OS cells.
# μ-opioid receptor [2] = target: T2, μ-opioid receptor (Homo sapiens (Human), UniProt P35372); test: μ-opioid receptor functional assay (U-2 OS cells); assay type: biochemical; settings: for Emax: U-2 OS cells, relative to DAMGO
# Protocol: (§4) [^35S]GTPγS functional assays were conducted using freshly thawed μ-receptor membranes prepared in-house from a cell line expressing recombinant μ opioid receptor in a HEK-293, CHO or U-2 OS cell background, or purchased from a commercial source (Perkin Elmer, Shelton, Conn.; or DiscovRx, Fremont, Calif.). Assay reactions were prepared by sequentially adding the following reagents to binding buffer (100 mM NaCl, 10 mM MgCl2, 20 mM HEPES, pH 7.4) on ice (final concentrations indicated): membrane protein (0.026 mg/mL), saponin ([…]), GDP ([…]) and [^35S]GTPγS (0.20 nM; Perkin Elmer, Shelton, Conn.). The prepared membrane solution (190 μl/well) was transferred to 96-shallow well polypropylene plates containing 10 μl of 20× concentrated stock solutions of the agonist [D-Ala^2, N-methyl-Phe^4 Gly-ol^5]-enkephalin (DAMGO) prepared in dimethyl sulfoxide (DMSO). Plates were incubated for 30 min at about 25° C. with shaking. Reactions were terminated by rapid filtration onto 96-well Unifilter GF/B filter plates (Perkin Elmer, Shelton, Conn.) using a 96-well tissue harvester (Perkin Elmer, Shelton, Conn.) followed by three filtration washes with 200 μl of ice-cold wash buffer (10 mM NaH2PO4, 10 mM Na2HPO4, pH 7.4). Filter plates were subsequently dried at 50° C. for 2-3 hours. BetaScint scintillation cocktail (Perkin Elmer, Shelton, Conn.) was added (50 μl/well) and plates were counted using a Packard Top-Count for 1 min/well. Data were analyzed using the sigmoidal dose-response curve fitting functions in GraphPad PRISM v. 3.0, or an in-house function for non-linear, sigmoidal dose-response curve-fitting. [^35S]GTPγS functional assays can also be conducted using freshly thawed μ-receptor membranes prepared from a cell line expressing recombinant μ opioid receptor in a CHO-K1 cell background.
# (§5) μ GTP EC50 is the concentration of a compound providing 50% of the maximal response for the compound at a μ-opioid receptor.
# (§6) μ GTP Emax (%) is the maximal effect elicited by a compound relative to the effect elicited by DAMGO, a standard μ agonist.
# κ-opioid receptor [3] = target: T1, κ-opioid receptor; test: κ-opioid receptor [35S]GTPγS functional assay (HEK-293 cells); assay type: biochemical; settings: for Emax: HEK-293 cells, relative to U69,593
# Protocol: as §1, §2, §3
# (§7) In TABLE 4, activity response of certain Compounds of the Invention to the μ- and κ-opioid receptors was determined as described above for functional assays using HEK-293 cells.
# [4] = target: recombinant human kappa opioid receptor (κ) (Homo sapiens (Human), UniProt P41145); test: κ-opioid receptor radioligand dose-displacement binding assay (HEK-293 cells)
# Protocol: Membranes from HEK-293 cells, CHO cells or U-2 OS cells expressing the recombinant human kappa opioid receptor (κ) were prepared by lysing cells in ice cold hypotonic buffer (2.5 mM MgCl2, 50 mM HEPES, pH 7.4) (10 mL/10 cm dish) followed by homogenization with a tissue grinder/Teflon pestle. Membranes from a cell line naturally expressing kappa opioid receptor can also be used. Membranes were collected by centrifugation at 30,000×g for 15 min at 4° C. and pellets were resuspended in hypotonic buffer to a final concentration of 1-3 mg/mL. Protein concentrations were determined using the BioRad protein assay reagent with bovine serum albumen as standard. Aliquots of κ receptor membranes were stored at −80° C.
# Radioligand dose displacement assays used 0.4 nM [^3H]-U69,593 (GE Healthcare, Piscataway, N.J.; 40 Ci/mmole) with 15 μg membrane protein (recombinant κ opioid receptor expressed in HEK 293 cells; in-house prep) in a final volume of 200 μl binding buffer (5% DMSO, 50 mM Trizma base, pH 7.4). Non-specific binding was determined in the presence of 10 μM unlabeled naloxone or U69,593. All reactions were performed in 96-well polypropylene plates for 1 hour at a temperature of about 25° C. Binding reactions were terminated by rapid filtration onto 96-well Unifilter GF/C filter plates (Perkin Elmer, Shelton, Conn.) presoaked in 0.5% polyethylenimine (Sigma). Harvesting was performed using a 96-well tissue harvester (Perkin Elmer, Shelton, Conn.) followed by five filtration washes with 200 μl ice-cold binding buffer. Filter plates were subsequently dried at 50° C. for 1-2 hours. Fifty μl/well scintillation cocktail (Perkin Elmer, Shelton, Conn.) was added and plates were counted in a Packard Top-Count for 1 min/well.
# (§8) In TABLE 3, binding affinity of certain Compounds of the Invention to the μ- and κ-opioid receptors was determined as described above using HEK-293 cells.
# μ-opioid receptor [5] = target: T2, μ-opioid receptor; test: μ-opioid receptor [35S]GTPγS functional assay (HEK-293 cells); assay type: biochemical; settings: for Emax: HEK-293 cells, relative to DAMGO
# Protocol: as §4, §5, §6, §7
# μ-opioid receptor [6] = target: T2, μ-opioid receptor; test: μ-opioid receptor radioligand dose-displacement binding assay (HEK-293 cells)
# Protocol: Radioligand dose-displacement binding assays for μ-opioid receptors used 0.3 nM [^3H]-diprenorphine (Perkin Elmer, Shelton, Conn.), with […] membrane protein/well in a final volume of 500 μl binding buffer (10 mM MgCl2, 1 mM EDTA, 5% DMSO, 50 mM HEPES, pH 7.4). Reactions were carried out in the absence or presence of increasing concentrations of unlabeled naloxone. All reactions were conducted in 96-deep well polypropylene plates for 2 hours at room temperature. Binding reactions were terminated by rapid filtration onto 96-well Unifilter GF/C filter plates (Perkin Elmer, Shelton, Conn.), presoaked in 0.5% polyethylenimine using a 96-well tissue harvester (Perkin Elmer, Shelton, Conn.) followed by performing three filtration washes with 500 μl of ice-cold binding buffer. Filter plates were subsequently dried at 50° C. for 2-3 hours. BetaScint scintillation cocktail (Perkin Elmer, Shelton, Conn.) was added (50 μl/well), and plates were counted using a Packard Top-Count for 1 min/well. The data were analyzed using the one-site competition curve fitting functions in GraphPad PRISM™ v. 3.0 or higher (San Diego, Calif.), or an in-house function for one-site competition curve-fitting.
# as §8
SMILES,EC50 (κ-opioid receptor [1]) [nM],Emax (κ-opioid receptor [1]) [%],EC50 (μ-opioid receptor [2]) [nM],Emax (μ-opioid receptor [2]) [%],EC50 (κ-opioid receptor [3]) [nM],Emax (κ-opioid receptor [3]) [%],Ki [4] [nM],EC50 (μ-opioid receptor [5]) [nM],Emax (μ-opioid receptor [5]) [%],Ki (μ-opioid receptor [6]) [nM]
"O=C(N[C@]12CC[C@@]3(OC1)[C@H]1Cc4ccc(O)cc4[C@@]3(CCN1CC1CC1)C2)c1ccccc1 [Compound 27, N-((4bR,6S,8aS,9R)-11-(cyclopropylmethyl)-3-hydroxy-5,6,7,8,9,10-hexahydro-9,4b-(epiminoethano)-8a,6-(epoxymethano)phenanthren-6-yl)benzamide]",0.028,93.3 ± 3.84,0.037 ± 0.01,112 ± 3.51,0.14,94.2 ± 2.12,0.062 ± 0.012,0.58 ± 0.18,34.7 ± 1.45,0.019 ± 0.01
"O=C1O[C@@]23CC[C@]1(O)C[C@@]21CCN(CC2CC2)[C@@H]3Cc2ccc(O)cc21 [Compound 9, (4bR,6S,8aS,9R)-11-(cyclopropylmethyl)-3,6-dihydroxy-5,6,7,8,9,10-hexahydro-9,4b-(epiminoethano)-8a,6-(epoxymethano)phenanthren-15-one]",5.23 ± 0.38,91.7 ± 4.84,9.17 ± 1.18,63.7 ± 5.21,54.7 ± 7.26,54 ± 3.89,0.95 ± 0.29,> 20000,0.5 ± 0.5,10.1 ± 2.46
"COc1ccc2c(c1)[C@]13CCN(CC4CC4)[C@H](C2)[C@]12CC[C@](N)(C3)C(=O)O2 [Compound 3, (4bR,6S,8aS,9R)-6-amino-11-(cyclopropylmethyl)-3-methoxy-5,6,7,8,9,10-hexahydro-9,4b-(epiminoethano)-8a,6-(epoxymethano)phenanthren-15-one]",807 ± 83.2,99 ± 1.73,,,3010 ± 274,79.7 ± 10.3,248 ± 54.6,2980 ± 706,48.3 ± 6.01,1330 ± 313
"COc1ccc2c(c1)[C@]13CCN(CC4CC4)[C@H](C2)[C@]12CC[C@@](NC(=O)C(C)(C)C)(CO2)C3 [Compound 21, N-((4bR,6S,8aS,9R)-11-(cyclopropylmethyl)-3-methoxy-5,6,7,8,9,10-hexahydro-9,4b-(epiminoethano)-8a,6-(epoxymethano)phenanthren-6-yl)pivalamide]",1.12 ± 0.056,111 ± 3.28,86.8 ± 2.57,92.7 ± 2.91,3.25 ± 0.37,97.3 ± 1.33,0.33 ± 0.023,359 ± 128,35 ± 4.04,265 ± 77.5
"COc1ccc2c(c1)[C@]13CCN(CC4CC4)[C@H](C2)[C@]12CC[C@](O)(C3)C(=O)O2 [Compound 4, (4bR,6S,8aS,9R)-11-(cyclopropylmethyl)-6-hydroxy-3-methoxy-5,6,7,8,9,10-hexahydro-9,4b-(epiminoethano)-8a,6-(epoxymethano)phenanthren-15-one]",1110 ± 159,105 ± 7.02,,,2850 ± 1190,92 ± 6.03,251 ± 62.9,> 20000,1,6350 ± 1020
"N[C@]12CC[C@@]3(OC1)[C@H]1Cc4ccc(O)cc4[C@@]3(CCN1CC1CC1)C2 [Compound 17, (4bR,6S,8aS,9R)-6-amino-11-(cyclopropylmethyl)-5,6,7,8,9,10-hexahydro-9,4b-(epiminoethano)-8a,6-(epoxymethano)phenanthren-3-ol]",0.3 ± 0.032,106 ± 6.84,0.65 ± 0.078,77 ± 1,0.48 ± 0.02,75 ± 5.03,0.096 ± 0.026,> 20000,0,0.79 ± 0.19
"CC(C)(C)C(=O)N[C@]12CC[C@@]3(OC1)[C@H]1Cc4ccc(O)cc4[C@@]3(CCN1CC1CC1)C2 [Compound 26, N-((4bR,6S,8aS,9R)-11-(cyclopropylmethyl)-3-hydroxy-5,6,7,8,9,10-hexahydro-9,4b-(epiminoethano)-8a,6-(epoxymethano)phenanthren-6-yl)pivalamide]",0.031,91.7 ± 2.73,0.28 ± 0.01,89 ± 3.06,,,0.059 ± 0.01,> 20000,4 ± 1.53,0.056 ± 0.01
